Drawing on patent publication US20210008161A1, “METHODS AND COMPOSITIONS FOR IMPROVED HOMOLOGY DIRECTED REPAIR” (CRISPR THERAPEUTICS AG, priority 2019, published 2021), this text covers HDR efficiency for three molecules.

Assay [1] has as its system HEK293 T cells. The assay can be described thus: BFP to GFP fluorescent reporter assay of HDR efficiency (AAVS1 locus). Particulars: different concentrations/doses, FIG. 1B, 1C. The class given is cell-based, human. On the procedure: An in vitro assay was conducted to determine the ability of various inhibitors and enhancers to improve the efficiency of HDR repair in HEK293 T cells. Specifically, a fluorescent reporter-based screening approach was developed to identify molecules that enhance gene-editing by HDR. A reporter system was generated in HEK293 T cells comprising a genomic AAVS1 locus that encoded either a blue fluorescent protein (BFP) or a green fluorescent protein (GFP) within the AAVS1 locus. A gene encoding BFP can be converted to a gene encoding GFP by substitution of cytosine at position 199 to uridine (e.g., a C to U transition at position 199). By introducing a DSB within the BFP gene using a CRISPR/Cas9 gene-editing system, a homology donor DNA encoding the nucleotide substitution can be used to edit the BFP gene to a GFP gene by HDR repair. Thus, a gene edit that induces a C to U transition at position 199 results in a change in cellular fluorescence. A change in the fluorescence of the cell measured by flow cytometry can be used to quantify efficiency of HDR repair. Additionally, the reverse gene edit can be performed for an AAVS1 locus encoding a GFP gene, wherein a GFP can be converted to BFP by substitution of uridine at position 199 to cytosine.
To create the reporter system, an AAV-based homology donor DNA encoding either BFP or GFP was created. The AAV-BFP or AAV-GFP donor was flanked by homology arms that were 1000 base pairs in length and expression of BFP or GFP was driven by the MND promoter (e.g., a synthetic promoter that contains the U3 region of a modified Moloney murine leukemia virus long term terminal repeat with myeloproliferative sarcoma virus enhancer and deleted negative control region, SEQ ID NO: 58). The viral DNA was packaged into capsids of adeno-associated virus serotype 6 (AAV6) vector. Either the BFP or GFP donor was introduced using the AAV6 vector into the AAVS1 locus in HEK293 T cells by homologous recombination using CRISPR-Cas9 as follows: purified Cas9 protein was complexed with two different single gRNAs (sgRNAs) targeting the AAVS1 locus at SEQ ID NO: 3 (spacer sequence identified by SEQ ID NO: 4; gRNA obtained from Maxcyte) or SEQ ID NO: 5 (spacer sequence identified by SEQ ID NO: 6; gRNA obtained from Thermo Fisher). Cas9 protein used in the Exemplary section provided herein refers to Cas9 polypeptide derived from S. pyogenes (SpCas9), unless indicated otherwise.
The Cas9-sgRNA complex was electroporated into the HEK293 T cells using the Lonza Nucleofector program CM-130. Approximately, 2 hours after electroporation, the cells were infected with various viral doses of AAV6 encoding a BFP (SEQ ID NO: 44) or GFP homology donor (SEQ ID NO: 47). One week later, cells were analyzed by flow cytometry to verify integration and expression of BFP or GFP in the AAVS1 locus. HEK293 T cells expressing BFP or GFP were sorted into single cells in 96-well plates. After ˜2 weeks of growth, DNA extracted from individual cells was analyzed for precise integration of the respective BFP or GFP gene into the AAVS1 locus by long-range PCR. This PCR analysis allowed for determination of whether the BFP/GFP gene was integrated in one or both alleles of the AAVS1 locus.
To introduce a gene edit that converts BFP to GFP, cells were electroporated with ribonucleoprotein (RNP) comprised of Cas9 and sgRNA that targets the BFP gene encoded in the AAVS1 locus. The sgRNA targeted a sequence in the BFP gene identified by SEQ ID NO: 7 (sgRNA spacer sequence identified by SEQ ID NO: 8). The sgRNA were prepared using a standard sgRNA cassette specific to SpCas9, as indicated by SEQ ID NO: 2 (wherein a, c, g, u represent 2′ O-methyl phosphorothioate nucleotides; s represents phosphorothioate nucleotides; and A, C, G, U, N represent canonical RNA nucleotides). The gRNAs used in the Exemplary section provided herein were sgRNAs prepared with the SpCas9 sgRNA cassette unless indicated otherwise. […]

For assay [2], the system named is CD34-expressing LT-HSPCs. As to the kind of experiment: HDR insertion of AAV-delivered GFP donor into HBB locus (GFP fluorescence). The class given is cell-based, human. The settings on record: HBB locus in LT-HSPCs; any dose tested; data not shown. On the procedure: Frozen CD34-expressing LT-HSPCs derived from plerixafor (i.e., Mozibil®)+GCSF-dual mobilized peripheral blood obtained from healthy human donors were purchased from a commercial vendor. LT-HSPCs were maintained in culture media comprised of the reagents shown in Table 4 and were incubated at 37° C., 5% carbon dioxide, 4% oxygen. […] 2×10^5 cells were edited with 3 μg Cas9 and 3 μg gRNA. The target gene sequence (including target sequence with PAM), R02 spacer sequence, and R02 sgRNA sequence are identified in Table 3.
The cells were transfected with a dsDNA homology donor encoding GFP under a SFFV promoter (SEQ ID NO: 60) that was delivered by AAV (SEQ ID NO: 56). […] The HDR efficiency was determined by measuring the level of GFP fluorescence in the cells following electroporation. To determine the effect of 53BP1 inhibition on HDR efficiency, the 53BP1 inhibitor i53 was introduced as an mRNA-encoded protein to the cells during electroporation with Cas9/gRNA RNP and AAV DNA that serves as a donor for homology directed repair.
The effect of 53BP1 inhibition on HDR efficiency was compared to other mRNA-encoded proteins that inhibit the NHEJ pathway. These included the proteins CYREN1 and CYREN2 that inhibit Ku70/80, a heterodimer that binds DNA blunt ends to prevent processing of 3′ single-stranded DNA tails necessary for HDR repair. Cells were electroporated with RNP, an AAV-GFP homology donor and mRNA encoding either i53 (mRNA ORF shown in SEQ ID NO: 69), CYREN1, or CYREN2.
The effect of treatment with i53 and Nu7441 was compared for improving efficiency of HDR repair of the HBB locus. Cells were treated with different doses of Nu7441 or with mRNA encoding i53 (ORF shown by SEQ ID NO: 69).

With `CCCCCCNC(=O)Nc1ccc(S(=O)(=O)Nc2ccc(CCNC[C@H](O)COc3ccc(O)cc3)cc2)cc1` [L755,507], the HDR efficiency result in assay [1] was “no improvement”. On the same count and under the same terms, as for `C[C@]1(c2nc3c(C(N)=O)cccc3[nH]2)CCCN1` [Veliparib], the entry is “no improvement”. Consider `Cl.O=c1[nH]c([C@@H]2CCCN2)nc2c1oc1ccc(Cl)cc12` [XL 413, reference compound], for which the HDR efficiency entry in assay [2] was “no improvement”.
